The source of these data is US20180099937A1, “NOVEL ARYL-CYANOGUANIDINE COMPOUNDS” (Bayer Pharma Aktiengesellschaft, priority 2015, published 2018).

In the experiment the target is SMYD2 (Homo sapiens, UniProt Q9NRG4). Briefly: Scintillation Proximity Assay (SPA) for detection of SMYD2 enzymatic inhibition. Format: biochemical. On the set-up: The SMYD2 full length enzyme was produced in-house by expression (with an N-terminal 6× His tag) in E. coli; 6xHis (N); made in house; host or cells: E. coli. The settings on record: SMYD2 full length enzyme, p53 Peptide substrate 1.0 μM, 3H-SAM 60 nM; read-out: IC50 [mol/l] (SPA Assay). The source says:
1.1 Scintillation Proximity Assay (SPA) for Detection of SMYD2 Enzymatic Inhibition
SMYD2 inhibitory activities of the compounds described in the present invention were quantified using a scintillation proximity assay (SPA) which measures methylation by the enzyme of the synthetic, biotinylated peptide Btn-Ahx-[…]—Amid×TFA (Biosyntan) derived from p53 and referred to from here on as “p53 Peptide”. The SMYD2 full length enzyme was produced in-house by expression (with an N-terminal 6× His tag) in E. coli and purification by affinity chromatography on a Ni-NTA Sepharose column followed by a size exclusion chromatography step on a Superdex 200 16/60 column (GE Healthcare).
In a typical assay 11 different concentrations of each compound (0.1 nM, 0.33 nM, 1.1 nM, 3.8 nM, 13 nM, 44 nM, 0.15 μM, 0.51 μM, 1.7 μM, 5.9 μM and 20 μM) were tested in duplicate within the same microtiter plate. To this end, 100-fold concentrated compound solutions (in DMSO) were previously prepared by serial dilution (1:3.4) of 2 mM stocks in a clear low volume 384-well source microliter plate (Greiner Bio-One), from which 50 nl of compound solutions were transferred into a white low volume test microtiter plate from the same supplier. Subsequently, 2.5 μl SMYD2 in aqueous assay buffer [50 mM Tris/HCl pH 9.0 (AppliChem), 1 mM dithiothreitol (DTT, Sigma), 0.01% (w/v) bovine serum albumine (BSA, Sigma), 0.0022% (v/v) Pluronic (Sigma)] were added to the compounds in the test plate to a final enzyme concentration of —typically—3 nM (this parameter was adjusted depending on the activity of the enzyme lot in order to be within the linear dynamic range of the assay). The samples were then incubated for 15 min at 22° C. to allow pre-equilibration of the putative enzyme-inhibitor complexes before the start of the methylation reaction, which was initiated by the addition of 2.5 μl 2-fold concentrated solution (in assay buffer) of titriated S-Adenosyl-L-Methionine (3H-SAM, Perkin Elmer, final concentration: 60 nM) and p53 Peptide substrate (final concentration: 1.0 μM). The resulting mixture (5 μl final volume) was shortly centrifuged (2 min., 1500 rpm) and incubated at 22° C. during 30 min. Thereupon the reaction was stopped by adding 3 μl of Streptavidin PS SPA imaging beads (Perkin Elmer, final concentration of 3.12 μg/μl) and “cold” SAM (AK Scientific, 25 μM final concentration) for non-specific binding reduction. Plates containing the stopped reaction were sealed with transparent adhesive foil (Perkin Elmer), centrifuged (2 min., 1500 rpm), and further incubated for —at least—1 h at RT (or overnight at 4° C.) in order to allow the SPA signals to develop. Subsequently, the amount of product was evaluated by measuring the energy transfer from the β-particles emitted by the 3H-labeled substrate to the Europium scintillator co-polymerized in the polystyrene matrix of the PS imaging beads, using the standard settings for this purpose of a Viewlux (Perkin-Elmer) CCD plate imaging device (emission filter 613/55 (IFP). The resulting scintillation counts were taken as indicator for the amount of methylated peptide per well. The data were normalised using two sets of control wells (typically 16 each) for high−(=enzyme reaction with DMSO instead of test compound=0% =Minimum inhibition) and low−(=all assay components without enzyme=100% =Maximum inhibition) SMYD2 activity. IC50 values were calculated by fitting the normalized inhibition data to a 4-parameter logistic equation using the “Screener” analysis software from Genedata.

SMYD2, sequence (Q9NRG4 whole entry): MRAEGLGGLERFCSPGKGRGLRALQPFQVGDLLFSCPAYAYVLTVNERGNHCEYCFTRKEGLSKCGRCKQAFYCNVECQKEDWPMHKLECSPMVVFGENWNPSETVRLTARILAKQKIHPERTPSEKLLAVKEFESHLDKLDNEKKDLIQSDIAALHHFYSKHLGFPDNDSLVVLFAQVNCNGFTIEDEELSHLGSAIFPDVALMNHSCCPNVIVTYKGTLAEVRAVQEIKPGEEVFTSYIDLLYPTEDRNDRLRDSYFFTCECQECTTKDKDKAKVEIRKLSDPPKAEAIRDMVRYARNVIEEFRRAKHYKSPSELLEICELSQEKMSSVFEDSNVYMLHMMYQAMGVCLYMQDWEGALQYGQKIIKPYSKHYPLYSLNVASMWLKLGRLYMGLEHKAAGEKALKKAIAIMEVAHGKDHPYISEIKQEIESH

`CCN(C(=O)[C@H]1C[C@@H](F)CN1)C1CN(/C(=N\C#N)Nc2cccc(OC(F)F)c2)N=C1c1ccc(Cl)c(Cl)c1` (single isomer, unassigned) [Example 4.1]: the IC50 is 0.0399 µM.
In the case of `CCN(C(=O)[C@H]1C[C@@H](F)CN1)C1CN(/C(=N\C#N)Nc2cccc(OC(F)F)c2)N=C1c1ccc(Cl)c(Cl)c1` (single isomer, unassigned) [Example 4.2] it was 0.663 µM; in that of `CCN(C(=O)[C@H]1C[C@@H](F)CN1)C1CN(/C(=N\C#N)Nc2cc(F)cc(OC(F)(F)F)c2)N=C1c1ccc(Cl)c(Cl)c1` (single isomer, unassigned) [Example 25.2], > 20 µM.
Consider `CCN(C(=O)[C@H]1C[C@@H](F)CN1)C1CN(/C(=N\C#N)Nc2cc(F)cc(OC(F)(F)F)c2)N=C1c1ccc(Cl)c(Cl)c1` (single isomer, unassigned) [Example 25.1], for which the IC50 turned out to be 0.248 µM.
On to `CCN(C(=O)[C@H]1CCCN1)C1CN(/C(=N\C#N)Nc2cccc(OC(F)F)c2)N=C1c1ccc(Cl)c(Cl)c1` (single isomer, unassigned) [Example 1.2, N-[1-{N′-Cyano-N-[3-(difluoromethoxy)phenyl]carbamimidoyl}-3-(3,4-dichlorphenyl)-4,5-dihydro-1H-pyrazol-4-yl]-N-ethyl-D-prolinamide], for which the IC50 came to 0.362 µM.
For the compound `CCN(C(=O)[C@H]1CCCN1)C1CN(/C(=N\C#N)Nc2cc(C(F)(F)F)ccc2OC)N=C1c1ccc(Cl)c(Cl)c1` (mixture of isomers) [Example 27, N-[1-{N′-Cyano-N-[2-methoxy-5-(trifluoromethyl)phenyl]carbamimidoyl}-3-(3,4-dichlorophenyl)-4,5-dihydro-1H-pyrazol-4-yl]-N-ethyl-D-prolinamide], the IC50 turned out to be 0.00454 µM.
For `N#C/N=C(/Nc1cccc(OC(F)F)c1)N1CC(NC(=O)C2(N)CCCCC2)C(c2ccc(Cl)c(Cl)c2)=N1` (racemic) [Example 11, rac-1-Amino-N-[1-{N′-cyano-N-[3-(difluoromethoxy)phenyl]carbamimidoyl}-3-(3,4-dichlorophenyl)-4,5-dihydro-1H-pyrazol-4-yl]cyclohexanecarboxamide], the IC50 was 1.33 µM.
For `CCN(C(=O)[C@H]1C[C@@H](F)CN1)C1CN(/C(=N\C#N)Nc2cc(F)cc(OC(F)(F)F)c2)N=C1c1ccc(Cl)c(Cl)c1` (mixture of isomers) [Example 25, (4R)-N-[1-{N′-Cyano-N-[3-fluoro-5-(trifluoromethoxy)phenyl]carbamimidayl}-3-(3,4-dichlorophenyl)-4,5-dihydro-1H-pyrazol-4-yl]-N-ethyl-4-fluoro-D-prolinamide], the IC50 was determined as 0.519 µM.
Consider `CCN(C(=O)[C@H]1C[C@@H](O)CN1)C1CN(/C(=N\C#N)Nc2cccc(OC(F)F)c2)N=C1c1ccc(Cl)c(C)c1` (single isomer, unassigned) [Example 39.1], for which the IC50 turned out to be 0.0322 µM.
In the case of `CCN(C(=O)[C@H]1CCN1)C1CN(/C(=N\C#N)Nc2cccc(OC(F)F)c2)N=C1c1ccc(Cl)c(C)c1` (single isomer, unassigned) [Example 36.2], the IC50 came out at 0.302 µM.
Turning to `CCN(C(=O)[C@H]1C[C@@H](O)CN1)C1CN(/C(=N\C#N)Nc2cccc(OC(F)F)c2F)N=C1c1ccc(Cl)c(Cl)c1` (mixture of isomers) [Example 14, (4R)-N-[1-{N′-Cyano-N-[3-(difluoromethoxy)-2-fluorophenyl]carbamimidoyl}-3-(3,4-dichlorophenyl)-4,5-dihydro-1H-pyrazol-4-yl]-N-ethyl-4-hydroxy-D-prolinamide], the IC50 came out at 0.0798 µM.
`N#C/N=C(/Nc1cccc(OC(F)F)c1)N1CC(NC(=O)C(N)(C2CC2)C2CC2)C(c2ccc(Cl)c(Cl)c2)=N1` (racemic) [Example 8, rac-2-Amino-N-[1-{N′-cyano-N-[3-(difluoromethoxy)phenyl]carbamimidoyl}-3-(3,4-dichlorophenyl)-4,5-dihydro-1H-pyrazol-4-yl]-2,2-dicyclopropylacetamide]: the IC50 came to 0.513 µM.
`CCN(C(=O)[C@H]1C[C@@H](O)CN1)C1CN(/C(=N\C#N)Nc2cc(OC(F)(F)F)ccc2OC)N=C1c1ccc(Cl)c(Cl)c1` (mixture of isomers) [Example 20, (4R)-N-[1-{N′-Cyano-N-[2-methoxy-5-(trifluoromethoxy)phenyl]carbamimidayl}-3-(3,4-dichlorophenyl)-4,5-dihydro-1H-pyrazol-4-yl]-N-ethyl-1-hydroxy-D-prolinamide]: the IC50 came to 0.0224 µM.
In the case of `CCN(C(=O)[C@H]1CCCN1)C1CN(/C(=N\C#N)Nc2cc(OC)ccc2C)N=C1c1ccc(Cl)c(Cl)c1` (mixture of isomers) [Example 34, N-{1-[N′-Cyano-N-(5-methoxy-2-methylphenyl)carbamimidoyl]-3-(3,4-dichlorophenyl)-4,5-dihydro-1H-pyrazol-4-yl}-N-ethyl-D-prolinamide], the IC50 was determined as 0.615 µM.
Consider `C[C@]1(C(=O)NC2CN(/C(=N\C#N)Nc3cccc(OC(F)F)c3)N=C2c2ccc(Cl)c(Cl)c2)CCCN1` (single isomer, unassigned) [Example 6.2, N-[1-{N′-Cyano-N-[3-(difluoromethoxy)phenyl]carbamimidoyl}-3-(3,4-dichlorophenyl)-4,5-dihydro-1H-pyrazol-4-yl]-2-methyl-D-prolinamide], for which the IC50 came to 0.237 µM.
As for `CCN(C(=O)[C@H]1CCCN1)C1CN(/C(=N\C#N)Nc2cc(F)cc(OC(F)(F)F)c2)N=C1c1ccc(Cl)c(Cl)c1` (mixture of isomers) [Example 24, N-[1-{N′-Cyano-N-[3-fluoro-5-(trifluoromethoxy)phenyl]carbamimidoyl}-3-(3,4-dichlorophenyl)-4,5-dihydro-1H-pyrazol-4-yl]-N-ethyl-D-prolinamide], the IC50 is 0.0651 µM.
In the case of `CCN(C(=O)[C@H]1CCCN1)C1CN(/C(=N\C#N)Nc2cccc(OC(F)F)c2)N=C1c1ccc(Cl)c(C)c1` (single isomer, unassigned) [Example 37.2, N-[3-(4-Chloro-3-methylphenyl)-1-{N′-cyano-N-[3-(difluoromethoxy)phenyl]carbamimidoyl}-4,5-dihydro-1H-pyrazol-4-yl]-N-ethyl-D-prolinamide] it was > 20 µM; in that of `C[C@]1(C(=O)NC2CN(/C(=N\C#N)Nc3cccc(OC(F)F)c3)N=C2c2ccc(Cl)c(Cl)c2)CCCN1` (single isomer, unassigned) [Example 6.1, N-[1-{N′-Cyano-N-[3-(difluoromethoxy)phenyl]carbamimidoyl}-3-(3,4-dichlorophenyl)-4,5-dihydro-1H-pyrazol-1-yl]-2-methyl-D-prolinamide], 0.012 µM; in that of `CCN(C(=O)[C@H]1CCCN1)C1CN(/C(=N\C#N)Nc2ccc(F)c(OC(F)(F)F)c2)N=C1c1ccc(Cl)c(Cl)c1` (mixture of isomers) [Example 22, N-[1-{N′-Cyano-N-[4-fluoro-3-(trifluoromethoxy)phenyl]carbamimidoyl}-3-(3,4-dichlorophenyl)-4,5-dihydro-1H-pyrazol-4-yl]-N-ethyl-D-prolinamide], 0.0506 µM.
For `CCN(C(=O)[C@H]1CCCN1)C1CN(/C(=N\C#N)Nc2cc(F)cc(OC(F)(F)F)c2)N=C1c1ccc(Cl)c(Cl)c1` (single isomer, unassigned) [Example 24.2, N-[1-{N′-Cyano-N-[3-fluoro-5-(trifluoromethoxy)phenyl]carbamimidoyl}-3-(3,4-diehlorophenyl)-4,5-dihydro-1H-pyrazol-4-yl]-N-ethyl-D-prolinamide], the IC50 was found to be 3.95 µM.
